According to US20100099561A1, “HETEROBICYCLIC ALKYLTHIO-BRIDGED ISOXAZOLINES” (E.I. DU PONT DE NEMOURS AND COMPANY, priority 2008, published 2010):

How the values were obtained:
Type in all cases: in vivo
[1] = tested on: velvetleaf (Abutilon theophrasti); test: Test B preemergence, velvetleaf; details: Preemergence, scale 0 to 100
Text: (§1) Seeds of plant species selected from blackgrass (Alopecurus myosuroides), downy bromegrass (Bromus tectorum), green foxtail (Setaria viridis), Italian ryegrass (Lolium multiflorum), wheat (Triticum aestivum), wild oat (Avena fatua), catchweed bedstraw (Galium aparine), bermudagrass (Cynodon dactylon), Surinam grass (Brachiaria decumbens), cocklebur (Xanthium strumarium), corn (Zea mays), large crabgrass (Digitaria sanguinalis), woolly cupgrass (Eriochloa villosa), giant foxtail (Setaria faberii), goosegrass (Eleusine indica), johnsongrass (Sorghum halepense), kochia (Kochia scoparia), lambsquarters (Chenopodium album), morningglory (Ipomoea coccinea), nightshade (eastern black nightshade, Solanum ptycanthum), yellow nutsedge (Cyperus esculentus), pigweed (Amaranthus retroflexus), ragweed (common ragweed, Ambrosia elatior), soybean (Glycine max), sunflower (common oilseed sunflower, Helianthus annuus), Russian thistle (Salsola kali), and velvetleaf (Abutilon theophrasti) were planted into a blend of loam soil and sand and treated preemergence with test compounds formulated in a non-phytotoxic solvent mixture which included a surfactant. Treated plants and controls were maintained in a greenhouse for 13 to 15 days, after which time all species were compared to controls and visually evaluated. Plant response ratings, summarized in Table B, are based on a scale of 0 to 100 where 0 is no effect and 100 is complete control. A dash (-) response means no test result.

[2] = tested on: lambsquarters (Chenopodium album); test: Test B preemergence, lambsquarters; details: scale 0 to 100
Text: as §1

[3] = tested on: downy bromegrass (Bromus tectorum); test: Test B preemergence, downy bromegrass; details: scale 0 to 100
Text: as §1

[4] = tested on: nightshade (eastern black nightshade, Solanum ptycanthum); test: Test B preemergence, nightshade; details: scale 0 to 100
Text: as §1

[5] = tested on: velvetleaf (Abutilon theophrasti); test: Test A postemergence, velvetleaf; details: 0 to 100 scale (0 no effect, 100 complete control)
Procedure, shortened: (§2)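 Pre: directed soil spray after sowing in loam/sand. Post: seedlings at 1–2 leaf stage, 2–10 cm. Vehicle: non-phytotoxic solvent mix + surfactant. Greenhouse ~10 d; visual injury 0–100 vs untreated controls.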

corn (Zea mays) [6] = test: Test B preemergence, corn; details: scale 0 to 100
Text: as §1

corn (Zea mays) [7] = test: Test A preemergence, corn; details: 0 to 100 scale (0 no effect, 100 complete control)
Procedure, shortened: as §2

[8] = tested on: yellow nutsedge (Cyperus esculentus); test: Test B preemergence, yellow nutsedge; details: scale 0 to 100
Text: as §1

[9] = tested on: wheat (Triticum aestivum); test: Test A postemergence, wheat; details: 0 to 100 scale (0 no effect, 100 complete control)
Procedure, shortened: as §2

rice (Oryza sativa) = test: Test B flooded paddy test, rice; details: Flood, scale 0 to 100
Procedure, shortened: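 Step one: raise plants to 2 leaves. Step two: flood pots 3 cm over the soil and apply compound into the water, keeping this depth. Step three: after 13–15 greenhouse days, score visually versus controls, 0–100, where 100 means complete control.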

[10] = tested on: morningglory (Ipomoea coccinea); test: Test B preemergence, morningglory; details: scale 0 to 100
Text: as §1

[11] = tested on: giant foxtail (Setaria faberi); test: Test A postemergence, giant foxtail; details: 0 to 100 scale (0 no effect, 100 complete control)
Procedure, shortened: as §2

[12] = tested on: pigweed (Amaranthus retroflexus); test: Test A postemergence, pigweed; details: 0 to 100 scale (0 no effect, 100 complete control)
Procedure, shortened: as §2

soybean (Glycine max) = test: Test B preemergence, soybean; details: Preemergence, scale 0 to 100
Text: as §1

[13] = tested on: large crabgrass (Digitaria sanguinalis); test: Test B preemergence, large crabgrass; details: scale 0 to 100
Text: as §1

[14] = tested on: large crabgrass (Digitaria sanguinalis); test: Test A preemergence, large crabgrass; details: 0 to 100 scale (0 no effect, 100 complete control)
Procedure, shortened: as §2

[15] = tested on: wheat (Triticum aestivum); test: Test A preemergence, wheat; details: 0 to 100 scale (0 no effect, 100 complete control)
Procedure, shortened: as §2

[16] = tested on: large crabgrass (Digitaria sanguinalis); test: Test A postemergence, large crabgrass; details: 0 to 100 scale (0 no effect, 100 complete control)
Procedure, shortened: as §2

[17] = tested on: barnyardgrass (Echinochloa crus-galli); test: Test A postemergence, barnyardgrass; details: 0 to 100 scale (0 no effect, 100 complete control)
Procedure, shortened: as §2

[18] = tested on: blackgrass (Alopecurus myosuroides); test: Test B preemergence, blackgrass; details: scale 0 to 100
Text: as §1

SMILES: CC1(C)CC(S(=O)(=O)Cc2c(C(F)(F)F)nc3n(c2=O)CCCC3)=NO1 [Compound 8, 3-[[(4,5-dihydro-5,5-dimethyl-3-isoxazolyl)sulfonyl]methyl]-6,7,8,9-tetrahydro-2-(trifluoromethyl)-4H-pyrido[1,2-α]pyrimidin-4-one]
- Plant response rating, Velvetleaf ([1]; 16 g ai/ha): 0
- Plant response rating, Velvetleaf ([1]; 31 g ai/ha): 0
- Plant response rating, Velvetleaf ([1]; 62 g ai/ha): 35
- Plant response rating, Velvetleaf ([1]; 125 g ai/ha): 45
- Plant response rating, Lambsquarters ([2]; 16 g ai/ha): 55
- Plant response rating, Lambsquarters ([2]; 31 g ai/ha): 98
- Plant response rating, Lambsquarters ([2]; 62 g ai/ha): 100
- Plant response rating, Lambsquarters ([2]; 125 g ai/ha): 100
- Plant response rating, Bromegrass, Downy ([3]; 16 g ai/ha): 0
- Plant response rating, Bromegrass, Downy ([3]; 31 g ai/ha): 0
- Plant response rating, Bromegrass, Downy ([3]; 62 g ai/ha): 20
- Plant response rating, Bromegrass, Downy ([3]; 125 g ai/ha): 40
- Plant response rating, Nightshade ([4]; 16 g ai/ha): 0
- Plant response rating, Nightshade ([4]; 31 g ai/ha): 65
- Plant response rating, Nightshade ([4]; 62 g ai/ha): 75
- Plant response rating, Nightshade ([4]; 125 g ai/ha): 98
- Plant response rating, Velvetleaf ([5]; 125 g ai/ha): 50
- Plant response rating, Velvetleaf ([5]; 500 g ai/ha): 70
- Plant response rating, Corn (corn (Zea mays) [6]; 16 g ai/ha): 10
- Plant response rating, Corn (corn (Zea mays) [6]; 31 g ai/ha): 15
- Plant response rating, Corn (corn (Zea mays) [6]; 62 g ai/ha): 45
- Plant response rating, Corn (corn (Zea mays) [6]; 125 g ai/ha): 55
- Plant response rating, Corn (corn (Zea mays) [7]; 125 g ai/ha): 0
- Plant response rating, Corn (corn (Zea mays) [7]; 500 g ai/ha): 20
- Plant response rating, Nutsedge, Yellow ([8]; 16 g ai/ha): 0
- Plant response rating, Nutsedge, Yellow ([8]; 31 g ai/ha): 20
- Plant response rating, Nutsedge, Yellow ([8]; 62 g ai/ha): 60
- Plant response rating, Nutsedge, Yellow ([8]; 125 g ai/ha): 80
- Plant response rating, Wheat ([9]; 125 g ai/ha): 20
- Plant response rating, Wheat ([9]; 500 g ai/ha): 60
- Plant response rating, Rice (rice (Oryza sativa); 62 g ai/ha): 0
- Plant response rating, Rice (rice (Oryza sativa); 250 g ai/ha): 0
- Plant response rating, Morningglory ([10]; 16 g ai/ha): 0
- Plant response rating, Morningglory ([10]; 31 g ai/ha): 0
- Plant response rating, Morningglory ([10]; 62 g ai/ha): 20
- Plant response rating, Morningglory ([10]; 125 g ai/ha): 80
- Plant response rating, Foxtail, Giant ([11]; 125 g ai/ha): 70
- Plant response rating, Foxtail, Giant ([11]; 500 g ai/ha): 90
- Plant response rating, Pigweed ([12]; 125 g ai/ha): 10
- Plant response rating, Pigweed ([12]; 500 g ai/ha): 60
- Plant response rating, Soybean (soybean (Glycine max); 16 g ai/ha): 0
- Plant response rating, Soybean (soybean (Glycine max); 31 g ai/ha): 0
- Plant response rating, Soybean (soybean (Glycine max); 62 g ai/ha): 0
- Plant response rating, Soybean (soybean (Glycine max); 125 g ai/ha): 0
- Plant response rating, Crabgrass, Large ([13]; 16 g ai/ha): 95
- Plant response rating, Crabgrass, Large ([13]; 31 g ai/ha): 95
- Plant response rating, Crabgrass, Large ([13]; 62 g ai/ha): 100
- Plant response rating, Crabgrass, Large ([13]; 125 g ai/ha): 100
- Plant response rating, Crabgrass, Large ([14]; 125 g ai/ha): 90
- Plant response rating, Crabgrass, Large ([14]; 500 g ai/ha): 100
- Plant response rating, Wheat ([15]; 125 g ai/ha): 0
- Plant response rating, Wheat ([15]; 500 g ai/ha): 60
- Plant response rating, Crabgrass, Large ([16]; 125 g ai/ha): 60
- Plant response rating, Crabgrass, Large ([16]; 500 g ai/ha): 90
- Plant response rating, Barnyardgrass ([17]; 125 g ai/ha): 80
- Plant response rating, Barnyardgrass ([17]; 500 g ai/ha): 90
- Plant response rating, Blackgrass ([18]; 16 g ai/ha): 0
- Plant response rating, Blackgrass ([18]; 31 g ai/ha): 90
- Plant response rating, Blackgrass ([18]; 62 g ai/ha): 90
- Plant response rating, Blackgrass ([18]; 125 g ai/ha): 100
